Measurements taken from patent publication US10493026B2, “Process for making tablet using radiofrequency and lossy coated particles” (Johnson & Johnson Consumer Inc., priority 2017, dated 2019).
Where “and” joins values, the source holds several entries; their conditions need not be identical. Equal entries are not always repeated.

Assay: Permittivity (Q, e′, e″) by impedance analyzer, capacitance method
Format: physicochemical
Conditions: 27 MHz
Description: The property of permittivity is the measure of the resistance to forming an electric field. For purposes of comparing materials in air, it is often convenient to describe the permittivity of material in air where the permittivity is more specifically called “relative permittivity” or €r. This is a complex number represented by the following equation: €r=e′−je″ where e′ (the real portion of the complex number) is the dielectric constant (energy storage) and e″ (the imaginary portion of the complex number) is the dielectric loss or dissipation factor (energy dissipated as heat). The ratio of dielectric loss (e″) over the dielectric constant (e′) is called the loss tangent (tan δ) or power factor. […] The Q value is affected by physical and chemical properties such as density (porosity/particle size), moisture (conductivity), temperature, and molecular polarizability. The measurements obtained by this method can eliminate the need to measure and evaluate these properties independently.
Permittivity values (Q, e′, e″) were measured using an Agilent Impedance Analyzer at 27Mhz using a capacitance method wherein a fixture with a bottom fixed plate and top adjustable plate with a torque limiter which lightly compresses a cylindrical sample container to remove any air. During testing, the container is over filled with material and then carefully leveled off to avoid void spaces. A lid is placed on top to temporarily seal material within the container. Once a measurement is made, custom software calculates the difference between the sample and the configuration empty.

OC[C@@H](O)[C@@H](O[C@H]1O[C@H](CO)[C@@H](O)[C@H](O)[C@H]1O)[C@H](O)[C@@H](O)CO [Maltitol, NF (SweetPearl P300DC), Maltitol]
Loss Tangent (Table 1A): 0.0035 | e′ (Table 1A): 1.703 | e″ (Table 1A): 0.006 | Loss Tangent (Table 1B): 0.0022 | e′ (Table 1B): 1.6214 | e″ (Table 1B): 0.0035

OC[C@@H](O)[C@@H](O)[C@H](O)[C@H](O)CO [Mannitol NF (Pearlitol 200SD), Mannitol]
Loss Tangent (Table 1A): 0.0028 | e′ (Table 1A): 1.410 | e″ (Table 1A): 0.004

OC[C@@H](O)[C@@H](O)[C@H](O)[C@@H](O)CO [Sorbitol Powder, NF, Sorbitol]
Loss Tangent (Table 1A): 0.0358 and 0.0462 and 0.0361 | e′ (Table 1A): 1.960 and 2.097 and 1.803 | e″ (Table 1A): 0.0701 and 0.0969 and 0.0650
